In patent US5143903A, “Method of treatment with tripeptide pharmaceutical compositions as immunomodulators” (priority 1989, dated 1992):

What was measured:
[1] = test system: Mononuclear cells of peripheral human blood (PBMC); assay: Test on the proliferation of mononuclear cells; format: cell-based; parameters: key: expressing with +, ++ and +++ the substances acting as stimulants (from the least to the most effective); expressing with +, ++ and +++ the substances acting as stimulants (from the least to the most effective); expressing with +, ++ and +++ the substances acting as stimulants (from the least to the most effective); with -, -- and --- the substances inhibiting normal cell growth; with -, -- and --- the substances inhibiting normal cell growth; with -, -- and --- the substances inhibiting normal cell growth; The inactive compounds were expressed with =; separating with / the effects of the higher doses from those of the lower doses; details: Table 2, tritium thymidine; for Effect on cell proliferation, ACTIVATOR USED Interl. 2: PBMC activated with Interleukin 2, 6 days
Experimental: Mononuclear cells of peripheral human blood (PBMC), provided by healthy volunteers, were purified according to techniques normally used in haematology laboratories, and were finally suspended, at a concentration of 1.000.000/ml in the bed RPMI 1640 (company Flow Laboratories), enriched with 10% of heat inactivated human serum, 2 mM of glutamine and 40 mcg/ml of Gentalyn (from Shering Co.).
The cells were cultivated (100.000/pit) in triplicate on plates of 96 flat-bottomed pits, for a varying number of days according to the activating substances used (6 days for Interleukin 2 and PPD, 3 days for PHA and ConA), in 200 microliters of the suspension bed, in an incubator at 37° C. with 5% CO2. During the last 17 hours of culture the cells were marked with 0,5 microCuries of tritium thymidine (TdR). At the end of the incubation period, the radioactivity present in the cells was gathered on fiberglass filters. Embedded TdR was measured in a beta-radiation counter.
The results are expressed as arithmetic averages of the counts.
On the cells cultivated in this manner the effect of the substances derived from snake poison was tested.
Using the same methods employed in the test described above, a series of compounds having a peptide structure according to the invention, along with other control compounds, were tested for their imunomodulant activity.

T lymphocites = assay: Comparison with Interferon gamma: proliferative response of T lymphocites after presentation of B lymphocites treated with PPD; format: cell-based; details: 1000 u/ml
Excerpt: With the aim of more detailed study of the mechanism of action, the effect of the tripeptide PYR-LEU-TRP has been compared to that of Interferon gamma as regards the stimulation of the proliferative response of T lymphocites after presentation of the B lymphocites treated with PPD.

| Compound | Effect on cell proliferation, ACTIVATOR USED Interl. 2 [1] | Effect on cell proliferation, ACTIVATOR USED PPD ([1]; PBMC activated with PPD, 6 days) | increase of the basal proliferative response (T lymphocites) |
| --- | --- | --- | --- |
| CC(C)C[C@H](NP(=O)(O)O[C@@H]1O[C@@H](C)[C@H](O)[C@@H](O)[C@H]1O)C(=O)N[C@@H](Cc1c[nH]c2ccccc12)C(=O)O [Phosphoramidon] | +++ | +++ |  |
| Z--PRO--LEU--TRP | +++ |  |  |
| gamma Interferon: Interferon gamma, compared with the tripeptide at 1000 u/ml |  |  | approximately two and a half times |
